Reference: ChEMBL document CHEMBL4373720, “Discovery of Conformationally Restricted Human Glutaminyl Cyclase Inhibitors as Potent Anti-Alzheimer's Agents by Structure-Based Design” (J Med Chem, 2019)
The source made the active and inactive calls. No cut-off for these calls is given here.

Tests used:
[1] = Cytotoxicity against mouse HT22 cells assessed as cell viability at 10 uM measured after 18 hrs by MTT assay relative to control; format: cell-based, HT-22; settings: read-out: Activity
[2] = organism: Mus musculus; settings: ICR, 25 mg/kg
[3] = Stability in mouse liver microsomes assessed as parent compound remaining measured after 30 mins; format: ADME, Microsome; settings: read-out: Stability
[4] = biological target: hERG (KCNH2) (Homo sapiens, UniProt Q12809); experiment: Displacement of tracer red from human ERG at 10 uM by fluorescence polarization assay relative to control; settings: probe tracer red
[5] = tested on: Mus musculus; experiment: Neuroprotection in human amyloid beta (3 to 40 residues)-induced ICR mouse model of Alzheimer's disease assessed as inhibition of human amyloid beta N3pE-40 level in brain at 25 mg/kg, ip measured after 24 hrs by sandwich ELISA relative to control; format: functional
[6] = Stability in human liver microsomes assessed as parent compound remaining measured after 30 mins; format: ADME, Microsome; settings: read-out: Stability
[7] = organism: Mus musculus; experiment: animal or person; settings: ICR, central, 24 h, read-out: INH

Sequence of hERG (KCNH2) (Q12809 whole entry, the tested form may be a part): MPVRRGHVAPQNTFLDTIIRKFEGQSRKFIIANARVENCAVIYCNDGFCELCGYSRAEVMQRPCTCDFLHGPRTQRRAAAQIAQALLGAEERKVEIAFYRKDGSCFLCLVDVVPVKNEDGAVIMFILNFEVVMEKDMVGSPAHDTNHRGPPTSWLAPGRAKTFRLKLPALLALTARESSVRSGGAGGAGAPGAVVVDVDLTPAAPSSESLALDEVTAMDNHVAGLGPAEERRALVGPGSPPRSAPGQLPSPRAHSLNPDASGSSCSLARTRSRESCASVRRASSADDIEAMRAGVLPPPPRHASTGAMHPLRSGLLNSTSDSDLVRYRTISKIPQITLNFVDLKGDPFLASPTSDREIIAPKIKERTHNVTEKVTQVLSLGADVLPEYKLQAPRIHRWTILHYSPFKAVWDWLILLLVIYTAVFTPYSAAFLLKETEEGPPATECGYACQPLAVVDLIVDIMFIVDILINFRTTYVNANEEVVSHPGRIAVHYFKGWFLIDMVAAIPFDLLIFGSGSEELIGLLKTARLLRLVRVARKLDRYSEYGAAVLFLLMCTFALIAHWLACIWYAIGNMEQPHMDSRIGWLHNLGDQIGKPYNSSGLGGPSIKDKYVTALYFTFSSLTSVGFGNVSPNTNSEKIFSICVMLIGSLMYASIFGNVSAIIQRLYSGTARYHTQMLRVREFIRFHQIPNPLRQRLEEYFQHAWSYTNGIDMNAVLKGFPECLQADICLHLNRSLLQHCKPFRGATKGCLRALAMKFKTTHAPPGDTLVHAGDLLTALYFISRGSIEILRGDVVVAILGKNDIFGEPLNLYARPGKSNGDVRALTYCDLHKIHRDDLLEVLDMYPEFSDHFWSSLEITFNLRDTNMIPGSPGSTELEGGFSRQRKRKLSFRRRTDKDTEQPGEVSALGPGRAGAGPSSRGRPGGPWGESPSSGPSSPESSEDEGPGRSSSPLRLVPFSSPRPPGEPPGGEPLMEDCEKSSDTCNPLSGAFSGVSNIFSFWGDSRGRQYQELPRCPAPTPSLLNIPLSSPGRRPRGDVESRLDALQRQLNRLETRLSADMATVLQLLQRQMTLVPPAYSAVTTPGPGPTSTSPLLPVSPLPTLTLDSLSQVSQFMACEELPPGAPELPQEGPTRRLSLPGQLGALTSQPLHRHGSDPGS

SMILES	viability at 18 h, 10 µM [1] [%]	inhibition [2]	remaining at 0.5 h [3] [%]	inhibition at 10 µM [4] [%]	inhibition in vivo at 25 mg/kg [5] [%]	remaining at 0.5 h [6] [%]	inhibition in vivo at 25 mg/kg [7] [%]
CCN(C(=S)NCCCn1cncc1C)c1ccc(OC)c(OC)c1	88.4	inactive	–	–	–	–	–
COc1ccc(N(CCCCc2ccnc(N)c2)C(=O)NCCCn2cncc2C)cc1OC	100	–	21.6	48	22.7	43.1	24.4
COc1ccc(N(CCCCc2ccnc(NCCN)c2)C(=O)NCCCn2cncc2C)cc1OC	82.2	–	–	40.8	–	–	13.7
COc1ccc(N(Cc2cccc(F)c2)C(=S)NCCCn2cncc2C)cc1OC	91.7	–	–	77.6	–	–	6.66
COc1ccc(N(Cc2ccc(F)cc2)C(=O)NCCCn2cncc2C)cc1OC	90.7	inactive	–	40.6	–	–	–
COc1ccc(N(Cc2ccc(Cl)cc2)C(=S)NCCCn2cncc2C)cc1OC	100	–	–	86.8	–	–	0.73
COc1ccc(N(CC(C)C)C(=S)NCCCn2cncc2C)cc1OC	100	inactive	–	39.9	–	–	–
COc1ccc(N(Cc2ccccc2)C(=S)NCCCn2cncc2C)cc1OC	80.4	–	–	71.5	–	–	15.3
COc1ccc(N(C(=S)NCCCn2cncc2C)C2CCCC2)cc1OC	81.7	–	–	31.8	–	–	1.17
COc1ccc(N(C(=S)NCCCn2cncc2C)C2CCCCC2)cc1OC	78.3	–	–	59.4	–	–	4.01
COc1ccc(N(CC2CCCC2)C(=O)NCCCn2cncc2C)cc1OC	100	–	–	29.6	–	–	2.96
COc1ccc(N(C(=O)NCCCn2cncc2C)C2CCCCC2)cc1OC	88.6	inactive	–	12.2	–	–	–
COc1ccc(N(C(=S)NCCCn2cncc2C)C(C)C)cc1OC	100	–	–	46.3	–	–	6
COc1ccc(N(CC2CCCC2)C(=S)NCCCn2cncc2C)cc1OC	100	–	–	60	–	–	2.96
COc1ccc(N(Cc2ccc(F)cc2)C(=S)NCCCn2cncc2C)cc1OC	100	inactive	–	83.5	–	–	–
COc1ccc(N(Cc2cccnc2)C(=O)NCCCn2cncc2C)cc1OC	100	–	12.8	33.2	22.9	44	26
COc1ccc(N(C(=S)NCCCn2cncc2C)C2CCC2)cc1OC	86.7	inactive	–	11.5	–	–	–
COc1ccc(N(Cc2cccnc2)C(=S)NCCCn2cncc2C)cc1OC	89.3	–	–	34.5	–	–	5.31
COc1ccc(N(Cc2ccncc2)C(=S)NCCCn2cncc2C)cc1OC	100	–	–	32.3	–	–	11.6
COc1ccc(N(CC(C)C)C(=O)NCCCn2cncc2C)cc1OC	100	inactive	–	23.7	–	–	–
COc1ccc(N(Cc2cccc(Cl)c2)C(=S)NCCCn2cncc2C)cc1OC	88.2	inactive	–	86	–	–	–
